Data on twelve molecules can be found in US8987195B2 (priority 2012, dated 2015).

The subject of assay [1] is HCV genotype 1b replicon. Nature of the assay: HCV replicon assay, genotype 1b replicon EC50. Format: cell-based, Hepatitis C virus. The settings on record: Hepatitis C virus, HCV replicon, genotype 1b, read-out: EC50 [gt-1b]. The method in brief: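 Readout was replicon RNA copy number, by 32P-probe protection or TaqMan normalized to cellular cyclophilin A RNA, or luciferase activity for luciferase:Neo^r fusion lines. Cells were exposed to serially diluted compound for 24-48 hours without G418, then washed and lysed. EC50 derived from four-parameter fit relative to DMSO.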

Assay [2] addresses HCV NS3/4A protease genotype 1b (Hepatitis C virus genotype 1b, UniProt P26663). Put plainly: HCV NS3/4A protease time-resolved fluorescence (TRF) assay, Ki against genotype 1b. Format: biochemical. Conditions: IC50 [gt-1b], NS3/4A protease TRF assay, genotype 1b enzyme 0.2 nM. An outline of the steps: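 Ki was converted from fitted IC50 using IC50=Ki(1+[S]/KM) and 25 nM substrate. Protease (genotype 1b 0.2 nM, A156T 0.4 nM, 3a 0.025 nM) and compound were pre-mixed 30 min in pH 7.5 HEPES/NaCl/glycerol/DTT buffer. Cleavage then proceeded 2.5 h at room temperature, detected by time-resolved europium fluorescence (340/615 nm).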

SMILES strings stand for the structures. Like-named read-outs stand apart in the source and are kept apart here.

As a reminder, the EC50 is the midpoint of the concentration-response curve. The IC50 is the midpoint of a concentration-inhibition curve. Consider `CC(C)COC(=O)N[C@H]1CCCCC/C=C\[C@@H]2C[C@@]2(C(=O)NS(=O)(=O)C2(C)CC2)NC(=O)[C@@H]2C[C@]3(CCc4c(c(C(F)(F)F)nc5ccc(OCCN6CCOCC6)cc45)O3)CN2C1=O` [Example 471, 2-methylpropyl [(2R,6S,12Z,13aS,14aR,16aS)-14a-{[(1-methylcyclopropyl)sulfonyl]carbamoyl}-9′-[2-(morpholin-4-yl)ethoxy]-5,16-dioxo-5′-(trifluoromethyl)-1,1′,2′,5,6,7,8,9,10,11,13a,14,14a,15,16,16a-hexadecahydrospiro[cyclopropa[e]pyrrolo[1,2-a][1,4]diazacyclopentadecine-2,3′-pyrano[2,3-c]quinolin]-6-yl]carbamate], for which, in assay [1] (HCl salt), the EC50 turned out to be 3.06 nM. Also, the IC50 in assay [2] (HCl salt) is 0.021 nM.
On to `CC(C)(C)COC(=O)N[C@H]1CCCCC/C=C\[C@@H]2C[C@@]2(C(=O)NS(=O)(=O)C2(C)CC2)NC(=O)[C@@H]2C[C@]3(CCc4c(c(C(F)(F)F)nc5ccc(OCCN6CCOCC6)cc45)O3)CN2C1=O` [Example 472, 2,2-dimethylpropyl [(2R,6S,12Z,13aS,14aR,16aS)-14a-{[(1-methylcyclopropyl)sulfonyl]carbamoyl}-9′-[2-(morpholin-4-yl)ethoxy]-5,16-dioxo-5′-(trifluoromethyl)-1,1′,2′,5,6,7,8,9,10,11,13a,14,14a,15,16,16a-hexadecahydrospiro[cyclopropa[e]pyrrolo[1,2-a][1,4]diazacyclopentadecine-2,3′-pyrano[2,3-c]quinolin]-6-yl]carbamate], for which, in assay [1] (HCl salt), the EC50 was 3.43 nM. Moreover, the IC50 in assay [2] (HCl salt) was determined as 0.02 nM.
Consider `COCC1(S(=O)(=O)NC(=O)[C@@]23C[C@H]2/C=C\CCCCC[C@H](NC(=O)OCC(C)C)C(=O)N2C[C@@]4(CCc5c(c(C(F)(F)F)nc6ccc(OC)cc56)O4)C[C@H]2C(=O)N3)CC1` [Example 473, 2-methylpropyl [(2R,6S,12Z,13aS,14aR,16aS)-9′-methoxy-14a-({[1-(methoxymethyl)cyclopropyl]sulfonyl}carbamoyl)-5,16-dioxo-5′-(trifluoromethyl)-1,1′,2′,5,6,7,8,9,10,11,13a,14,14a,15,16,16a-hexadecahydrospiro[cyclopropa[e]pyrrolo[1,2-a][1,4]diazacyclopentadecine-2,3′-pyrano[2,3-c]quinolin]-6-yl]carbamate], for which the EC50 in assay [1] was found to be 2.27 nM. In addition, in assay [2], the IC50 was 0.031 nM.
On the same counts, the results for `CC(C)[C@H](C)OC(=O)N[C@H]1CCCCC/C=C\[C@@H]2C[C@@]2(C(=O)NS(=O)(=O)C2(C)CC2)NC(=O)[C@@H]2C[C@]3(CCc4c(c(C(F)(F)F)nc5ccc(OCCN6CCOCC6)cc45)O3)CN2C1=O` [Example 474, (2S)-3-methylbutan-2-yl [(2R,6S,12Z,13aS,14aR,16aS)-14a-{[(1-methylcyclopropyl)sulfonyl]carbamoyl}-9′-[2-(morpholin-4-yl)ethoxy]-5,16-dioxo-5′-(trifluoromethyl)-1,1′,2′,5,6,7,8,9,10,11,13a,14,14a,15,16,16a-hexadecahydrospiro[cyclopropa[e]pyrrolo[1,2-a][1,4]diazacyclopentadecine-2,3′-pyrano[2,3-c]quinolin]-6-yl]carbamate] are 1.73 nM and 0.033 nM.
As for `CCCOC(=O)N[C@H]1CCCCC/C=C\[C@@H]2C[C@@]2(C(=O)NS(=O)(=O)C2(C)CC2)NC(=O)[C@@H]2C[C@]3(CCc4c(c(C(F)F)nc5ccc(OC)cc45)O3)CN2C1=O` [Example 475, propyl [(2R,6S,12Z,13aS,14aR,16aS)-5′-(difluoromethyl)-9′-methoxy-14a-{[(1-methylcyclopropyl)sulfonyl]carbamoyl}-5,16-dioxo-1,1′,2′,5,6,7,8,9,10,11,13a,14,14a,15,16,16a-hexadecahydrospiro[cyclopropa[e]pyrrolo[1,2-a][1,4]diazacyclopentadecine-2,3′-pyrano[2,3-c]quinolin]-6-yl]carbamate], the EC50 in assay [1] (K+ salt) was 2.39 nM. Moreover, the IC50 in assay [2] (K+ salt) stood at 0.005 nM.
As for `COCC1(S(=O)(=O)NC(=O)[C@@]23C[C@H]2/C=C\CCCCC[C@H](NC(=O)OC(C)(C)C)C(=O)N2C[C@@]4(CCc5c(c(C(F)F)nc6ccc(OC)cc56)O4)C[C@H]2C(=O)N3)CC1` [Example 476, tert-butyl [(2R,6S,12Z,13aS,14aR,16aS)-5′-(difluoromethyl)-9′-methoxy-14a-({[1-(methoxymethyl)cyclopropyl]sulfonyl}carbamoyl)-5,16-dioxo-1,1′,2′,5,6,7,8,9,10,11,13a,14,14a,15,16,16a-hexadecahydrospiro[cyclopropa[e]pyrrolo[1,2-a][1,4]diazacyclopentadecine-2,3′-pyrano[2,3-c]quinolin]-6-yl]carbamate], the EC50 in assay [1] is 4.35 nM. Besides, half-maximal inhibition in assay [2] (IC50) required 0.012 nM.
For `CC[C@H](C)OC(=O)N[C@H]1CCCCC/C=C\[C@@H]2C[C@@]2(C(=O)NS(=O)(=O)C2(COC)CC2)NC(=O)[C@@H]2C[C@]3(CCc4c(c(C(F)F)nc5ccc(OC)cc45)O3)CN2C1=O` [Example 477, (2S)-butan-2-yl [(2R,6S,12Z,13aS,14aR,16aS)-5′-(difluoromethyl)-9′-methoxy-14a-({[1-(methoxymethyl)cyclopropyl]sulfonyl}carbamoyl)-5,16-dioxo-1,1′,2′,5,6,7,8,9,10,11,13a,14,14a,15,16,16a-hexadecahydrospiro[cyclopropa[e]pyrrolo[1,2-a][1,4]diazacyclopentadecine-2,3′-pyrano[2,3-c]quinolin]-6-yl]carbamate], in assay [1] (K+ salt), the EC50 worked out at 5.05 nM. In assay [2] (K+ salt), the IC50 stood at 0.019 nM.
As to `COCC1(S(=O)(=O)NC(=O)[C@@]23C[C@H]2/C=C\CCCCC[C@H](NC(=O)O[C@@H](C)C(C)C)C(=O)N2C[C@@]4(CCc5c(c(C(F)F)nc6ccc(OC)cc56)O4)C[C@H]2C(=O)N3)CC1` [Example 478, (2S)-3-methylbutan-2-yl [(2R,6S,12Z,13aS,14aR,16aS)-5′-(difluoromethyl)-9′-methoxy-14a-({[1-(methoxymethyl)cyclopropyl]sulfonyl}carbamoyl)-5,16-dioxo-1,1′,2′,5,6,7,8,9,10,11,13a,14,14a,15,16,16a-hexadecahydrospiro[cyclopropa[e]pyrrolo[1,2-a][1,4]diazacyclopentadecine-2,3′-pyrano[2,3-c]quinolin]-6-yl]carbamate], the EC50 in assay [1] came out at 5.8 nM. It took 0.016 nM to reach half-maximal inhibition in assay [2] (IC50).
On the same counts, the results for `CCc1nc2ccc(OCCCOC)cc2c2c1O[C@]1(CC2)C[C@H]2C(=O)N[C@]3(C(=O)NS(=O)(=O)C4(C)CC4)C[C@H]3/C=C\CCCCC[C@H](NC(=O)OC(C)(C)C)C(=O)N2C1` [Example 479, tert-butyl [(2R,6S,12Z,13aS,14aR,16aS)-5′-ethyl-9′-(3-methoxypropoxy)-14a-{[(1-methylcyclopropyl)sulfonyl]carbamoyl}-5,16-dioxo-1,1′,2′,5,6,7,8,9,10,11,13a,14,14a,15,16,16a-hexadecahydrospiro[cyclopropa[e]pyrrolo[1,2-a][1,4]diazacyclopentadecine-2,3′-pyrano[2,3-c]quinolin]-6-yl]carbamate] are 1.05 nM and 0.005 nM.
In the case of `CCc1nc2ccc(OC)cc2c2c1O[C@]1(CC2)C[C@H]2C(=O)N[C@]3(C(=O)NS(=O)(=O)C4(C)CC4)C[C@H]3/C=C\CCCCC[C@H](NC(=O)c3sccc3C)C(=O)N2C1` [Example 480, (2R,6S,12Z,13aS,14aR,16aS)-5′-ethyl-9′-methoxy-N-[(1-methylcyclopropyl)sulfonyl]-6-{[(3-methylthiophen-2-yl)carbonyl]amino}-5,16-dioxo-1,1′,2′,6,7,8,9,10,11,13a,14,15,16,16a-tetradecahydrospiro[cyclopropa[e]pyrrolo[1,2-a][1,4]diazacyclopentadecine-2,3′-pyrano[2,3-c]quinoline]-14a(5H)-carboxamide], in assay [1], the EC50 came to 0.266 nM. The molecule also gave an IC50 in assay [2] of 0.006 nM.
On the same counts, the results for `CCc1nc2ccc(OC)cc2c2c1O[C@]1(CC2)C[C@H]2C(=O)N[C@]3(C(=O)NS(=O)(=O)C4(C)CC4)C[C@H]3/C=C\CCCCC[C@H](NC(=O)c3c(C)n[nH]c3C)C(=O)N2C1` [Example 485, (2R,6S,12Z,13aS,14aR,16aS)-6-{[(3,5-dimethyl-1H-pyrazol-4-yl)carbonyl]amino}-5′-ethyl-9′-methoxy-N-[(1-methylcyclopropyl)sulfonyl]-5,16-dioxo-1,1′,2′,6,7,8,9,10,11,13a,14,15,16,16a-tetradecahydrospiro[cyclopropa[e]pyrrolo[1,2-a][1,4]diazacyclopentadecine-2,3′-pyrano[2,3-c]quinoline]-14a(5H)-carboxamide] are 0.306 nM and 0.005 nM.
On the same counts, the results for `CCc1nc2ccc(OC)cc2c2c1O[C@]1(CC2)C[C@H]2C(=O)N[C@]3(C(=O)NS(=O)(=O)C4(C)CC4)C[C@H]3/C=C\CCCCC[C@H](NC(=O)O[C@@H](C)C3CC3)C(=O)N2C1` [Example 486, (1S)-1-cyclopropylethyl [(2R,6S,12Z,13aS,14aR,16aS)-5′-ethyl-9′-methoxy-14a-{[(1-methylcyclopropyl)sulfonyl]carbamoyl}-5,16-dioxo-1,1′,2′,5,6,7,8,9,10,11,13a,14,14a,15,16,16a-hexadecahydrospiro[cyclopropa[e]pyrrolo[1,2-a][1,4]diazacyclopentadecine-2,3′-pyrano[2,3-c]quinolin]-6-yl]carbamate] are 15.2 nM and 0.01 nM.
